# Key:
# Assay in all cases: cells
# COLO-741 = type: functional, cell-based, Homo sapiens; details: Homo sapiens, COLO-741
# Description: SANGER: Inhibition of human COLO-741 cell growth in a cell viability assay.
# COLO-800 = type: functional, cell-based, Homo sapiens; details: Homo sapiens, COLO-800;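 also: growth inhibition of COLO-800 cells, read out with a cell viability assay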
# Description: SANGER: Inhibition of human COLO-800 cell growth in a cell viability assay.
# CP66-MEL = type: functional, cell-based, Homo sapiens; details: Homo sapiens, CP66-MEL;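 also: growth inhibition of CP66-MEL cells determined in a cell viability assay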
# Description: SANGER: Inhibition of human CP66-MEL cell growth in a cell viability assay.
# DBTRG-05MG = type: functional, cell-based, Homo sapiens; details: Homo sapiens, DBTRG-05MG;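 also: cell viability assay measuring growth inhibition of human DBTRG-05MG cells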
# Description: SANGER: Inhibition of human DBTRG-05MG cell growth in a cell viability assay.
# DU-4475 = type: functional, cell-based; details: Homo sapiens
# Description: SANGER: Inhibition of human DU-4475 cell growth in a cell viability assay.
# EFO-27 = type: functional, cell-based, Homo sapiens; details: Homo sapiens, EFO-27;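 also: growth inhibition of EFO-27 cells, read out with a cell viability assay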
# Description: SANGER: Inhibition of human EFO-27 cell growth in a cell viability assay.
# GB-1 = type: functional, cell-based, Homo sapiens; details: Homo sapiens, GB-1;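 also: growth of GB-1 cells judged by a viability assay, IC50 marks the concentration inhibiting growth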
# Description: SANGER: Inhibition of human GB-1 cell growth in a cell viability assay.
# GP5d = type: functional, cell-based, Homo sapiens; details: Homo sapiens, GP5d;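 also: growth inhibition of human GP5d cells, read out with a cell viability assay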
# Description: SANGER: Inhibition of human GP5d cell growth in a cell viability assay.
# HAL-01 = type: functional, cell-based; details: Homo sapiens;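 also: growth inhibition of human HAL-01 cells, read out with a cell viability assay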
# Description: SANGER: Inhibition of human HAL-01 cell growth in a cell viability assay.
# HCC2157 = type: functional, cell-based; details: Homo sapiens;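 also: growth inhibition of the cancer cell line, read out as cell viability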
# Description: SANGER: Inhibition of human HCC2157 cell growth in a cell viability assay.
# HDLM-2 = type: functional, cell-based; details: Homo sapiens;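 also: cell viability assay measuring suppression of HDLM-2 proliferation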
# Description: SANGER: Inhibition of human HDLM-2 cell growth in a cell viability assay.
# HT-1080 = type: functional, cell-based, Homo sapiens; details: Homo sapiens, HT-1080
# Description: SANGER: Inhibition of human HT-1080 cell growth in a cell viability assay.
# KNS-81-FD = type: functional, cell-based, Homo sapiens; details: Homo sapiens, KNS-81-FD;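 also: growth inhibition of KNS-81-FD cells, read out with a cell viability assay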
# Description: SANGER: Inhibition of human KNS-81-FD cell growth in a cell viability assay.
# KU-19-19 = type: functional, cell-based, Homo sapiens; details: Homo sapiens, KU-19-19
# Description: SANGER: Inhibition of human KU-19-19 cell growth in a cell viability assay.
# KYSE-140 = type: functional, cell-based, Homo sapiens; details: Homo sapiens, KYSE-140;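 also: cell viability assay measuring growth inhibition in human KYSE-140 cells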
# Description: SANGER: Inhibition of human KYSE-140 cell growth in a cell viability assay.
# KYSE-510 = type: functional, cell-based, Homo sapiens; details: Homo sapiens, KYSE-510;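 also: cell viability readout used to measure how strongly growth of the cell line is suppressed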
# Description: SANGER: Inhibition of human KYSE-510 cell growth in a cell viability assay.
# LC-2-ad = type: functional, cell-based, Homo sapiens; details: Homo sapiens, LC-2-ad;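 also: growth inhibition of human LC-2-ad cells, read out with a cell viability assay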
# Description: SANGER: Inhibition of human LC-2-ad cell growth in a cell viability assay.
# LK-2 = type: functional, cell-based, Homo sapiens; details: Homo sapiens, LK-2;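 also: growth inhibition of LK-2 cells, read out with a viability assay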
# Description: SANGER: Inhibition of human LK-2 cell growth in a cell viability assay.
# LU-139 = type: functional, cell-based; details: Homo sapiens
# Description: SANGER: Inhibition of human LU-139 cell growth in a cell viability assay.
# M059J = type: functional, cell-based, Homo sapiens; details: Homo sapiens, M059J;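 also: growth inhibition of M059J cells, read out with a cell viability assay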
# Description: SANGER: Inhibition of human M059J cell growth in a cell viability assay.
# MC-IXC = type: functional, cell-based, Homo sapiens; details: Homo sapiens, MC-IXC;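 also: growth inhibition of MC-IXC cells, read out with a cell viability assay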
# Description: SANGER: Inhibition of human MC-IXC cell growth in a cell viability assay.
# MeWo = type: functional, cell-based, Homo sapiens; details: Homo sapiens, MeWo;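 also: growth inhibition of MeWo cells, determined by a cell viability readout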
# Description: SANGER: Inhibition of human Mewo cell growth in a cell viability assay.
# Mo = type: functional, cell-based; details: Homo sapiens
# Description: SANGER: Inhibition of human Mo-T cell growth in a cell viability assay.
# NB12 = type: functional, cell-based, Homo sapiens; details: Homo sapiens, NB12;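 also: growth inhibition of human NB12 cells, read out by a cell viability assay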
# Description: SANGER: Inhibition of human NB12 cell growth in a cell viability assay.
# NCI-H1304 = type: functional, cell-based; details: Homo sapiens;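 also: growth inhibition of the cancer cell line, measured in a cell viability assay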
# Description: SANGER: Inhibition of human NCI-H1304 cell growth in a cell viability assay.
# NCI-H1563 = type: functional, cell-based, Homo sapiens; details: Homo sapiens, NCI-H1563;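 also: growth inhibition of human NCI-H1563 cells, read out with a cell viability assay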
# Description: SANGER: Inhibition of human NCI-H1563 cell growth in a cell viability assay.
# NEC8 = type: functional, cell-based, Homo sapiens; details: Homo sapiens, NEC8;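 also: growth inhibition of human NEC8 cells, read out by a cell viability assay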
# Description: SANGER: Inhibition of human NEC8 cell growth in a cell viability assay.
# NH-12 = type: functional, cell-based, Homo sapiens; details: Homo sapiens, NH-12;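 also: growth inhibition of NH-12 cells, read out with a cell viability assay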
# Description: SANGER: Inhibition of human NH-12 cell growth in a cell viability assay.
# OE33 = type: functional, cell-based, Homo sapiens; details: Homo sapiens, OE33;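 also: growth inhibition of human OE33 cells, measured by a cell viability assay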
# Description: SANGER: Inhibition of human OE33 cell growth in a cell viability assay.
# OS-RC-2 = type: functional, cell-based, Homo sapiens; details: Homo sapiens, OS-RC-2;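 also: growth inhibition of human OS-RC-2 cells, measured by a cell viability assay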
# Description: SANGER: Inhibition of human OS-RC-2 cell growth in a cell viability assay.
# OVCAR-5 = type: functional, cell-based, Homo sapiens; details: Homo sapiens, OVCAR-5;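 also: growth inhibition of human OVCAR-5 cells, read out with a cell viability assay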
# Description: SANGER: Inhibition of human OVCAR-5 cell growth in a cell viability assay.
# PA-1 = type: functional, cell-based, Homo sapiens; details: Homo sapiens, PA-1;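 also: IC50 for suppression of PA-1 cell proliferation, determined with a cell viability read-out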
# Description: SANGER: Inhibition of human PA-1 cell growth in a cell viability assay.
# PSN1 = type: functional, cell-based, Homo sapiens; details: Homo sapiens, PSN1;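 also: suppression of growth of human PSN1 cells, read out by a cell viability assay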
# Description: SANGER: Inhibition of human PSN1 cell growth in a cell viability assay.
# RVH-421 = type: functional, cell-based, Homo sapiens; details: Homo sapiens, RVH-421
# Description: SANGER: Inhibition of human RVH-421 cell growth in a cell viability assay.
# SCC-4 = type: functional, cell-based, Homo sapiens; details: Homo sapiens, SCC-4;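 also: growth inhibition of human SCC-4 cells, read out as cell viability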
# Description: SANGER: Inhibition of human SCC-4 cell growth in a cell viability assay.
# SCH = type: functional, cell-based, Homo sapiens; details: Homo sapiens, SCH;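 also: growth inhibition of human SCH cells, read out in a cell viability assay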
# Description: SANGER: Inhibition of human SCH cell growth in a cell viability assay.
# SK-HEP1 = type: functional, cell-based, Homo sapiens, SK-HEP-1; details: Homo sapiens, SK-HEP1;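 also: cell viability readout used to quantify reduction in proliferation of human SK-HEP-1 cells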
# Description: SANGER: Inhibition of human SK-HEP-1 cell growth in a cell viability assay.
# SK-LMS-1 = type: functional, cell-based, Homo sapiens; details: Homo sapiens, SK-LMS-1;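 also: growth inhibition of human SK-LMS-1 cells, read out with a cell viability assay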
# Description: SANGER: Inhibition of human SK-LMS-1 cell growth in a cell viability assay.
# SK-OV-3 = type: functional, cell-based, Homo sapiens; details: Homo sapiens, SK-OV-3;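 also: growth inhibition of SK-OV-3 human cells, read out with a cell viability assay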
# Description: SANGER: Inhibition of human SK-OV-3 cell growth in a cell viability assay.
# SN12C = type: functional, cell-based, Homo sapiens; details: Homo sapiens, SN12C;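 also: growth inhibition of human SN12C cells, measured by a cell viability assay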
# Description: SANGER: Inhibition of human SN12C cell growth in a cell viability assay.
# ACN = type: functional, cell-based, Homo sapiens; details: Homo sapiens, ACN;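 also: growth inhibition of the human ACN cell line, read out via cell viability testing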
# Description: SANGER: Inhibition of human ACN cell growth in a cell viability assay.
# AN3-CA = type: functional, cell-based; details: Homo sapiens;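 also: growth inhibition of human AN3-CA cells measured by a cell viability assay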
# Description: SANGER: Inhibition of human AN3-CA cell growth in a cell viability assay.
# BV-173 = type: functional, cell-based; details: Homo sapiens
# Description: SANGER: Inhibition of human BV-173 cell growth in a cell viability assay.
# CAL-33 = type: functional, cell-based, Homo sapiens; details: Homo sapiens, CAL-33;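 also: growth inhibition of CAL-33 cells, read out with a cell viability assay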
# Description: SANGER: Inhibition of human CAL-33 cell growth in a cell viability assay.
# CAL-39 = type: functional, cell-based, Homo sapiens; details: Homo sapiens, CAL-39;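 also: cell viability assay measuring growth inhibition of CAL-39 cells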
# Description: SANGER: Inhibition of human CAL-39 cell growth in a cell viability assay.
# CAL-54 = type: functional, cell-based, Homo sapiens; details: Homo sapiens, CAL-54;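 also: growth inhibition of CAL-54 cells, read out by a viability measurement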
# Description: SANGER: Inhibition of human CAL-54 cell growth in a cell viability assay.
# TE-12 = type: functional, cell-based; details: Homo sapiens;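 also: growth inhibition of TE-12 cells, read out by a cell viability assay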
# Description: SANGER: Inhibition of human TE-12 cell growth in a cell viability assay.
# TE-5 = type: functional, cell-based, Homo sapiens; details: Homo sapiens, TE-5;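 also: inhibition of cell growth, read out by a cell viability assay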
# Description: SANGER: Inhibition of human TE-5 cell growth in a cell viability assay.
# WM-115 = type: functional, cell-based, Homo sapiens; details: Homo sapiens, WM-115
# Description: SANGER: Inhibition of human WM-115 cell growth in a cell viability assay.
# CAPAN-1 = type: functional, cell-based, Homo sapiens; details: Homo sapiens, CAPAN-1;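 also: growth suppression of CAPAN-1 cells, read out by a cell viability assay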
# Description: SANGER: Inhibition of human CAPAN-1 cell growth in a cell viability assay.
smiles,measurement,setting,value
COC(=O)CNC(=O)C(=O)OC,IC50,COLO-741,> 4000 µM
same,IC50,COLO-800,> 4000 µM
same,IC50,CP66-MEL,445 µM
same,IC50,DBTRG-05MG,311 µM
same,IC50,DU-4475,899 µM
same,IC50,EFO-27,541 µM
same,IC50,GB-1,94 µM
same,IC50,GP5d,636 µM
same,IC50,HAL-01,119 µM
same,IC50,HCC2157,> 4000 µM
same,IC50,HDLM-2,1890 µM
same,IC50,HT-1080,421 µM
same,IC50,KNS-81-FD,1850 µM
same,IC50,KU-19-19,1010 µM
same,IC50,KYSE-140,1610 µM
same,IC50,KYSE-510,112 µM
same,IC50,LC-2-ad,24.6 µM
same,IC50,LK-2,> 4000 µM
same,IC50,LU-139,184 µM
same,IC50,M059J,541 µM
same,IC50,MC-IXC,96.7 µM
same,IC50,MeWo,230 µM
same,IC50,Mo,1880 µM
same,IC50,NB12,85.4 µM
same,IC50,NCI-H1304,533 µM
same,IC50,NCI-H1563,124 µM
same,IC50,NEC8,406 µM
same,IC50,NH-12,> 4000 µM
same,IC50,OE33,421 µM
same,IC50,OS-RC-2,1750 µM
same,IC50,OVCAR-5,458 µM
same,IC50,PA-1,120 µM
same,IC50,PSN1,> 4000 µM
same,IC50,RVH-421,1310 µM
same,IC50,SCC-4,877 µM
same,IC50,SCH,> 4000 µM
same,IC50,SK-HEP1,84.2 µM
same,IC50,SK-LMS-1,120 µM
same,IC50,SK-OV-3,798 µM
same,IC50,SN12C,257 µM
same,IC50,ACN,128 µM
same,IC50,AN3-CA,209 µM
same,IC50,BV-173,234 µM
same,IC50,CAL-33,242 µM
same,IC50,CAL-39,19.3 µM
same,IC50,CAL-54,1250 µM
same,IC50,TE-12,182 µM
same,IC50,TE-5,1080 µM
same,IC50,WM-115,220 µM
same,IC50,CAPAN-1,101 µM
COc1cc([C@@H]2c3cc4c(cc3[C@@H](O[C@@H]3O[C@@H]5CO[C@@H](C)O[C@H]5[C@H](O)[C@H]3O)[C@H]3COC(=O)[C@H]23)OCO4)cc(OC)c1O [ETOPOSIDE],IC50,COLO-741,> 16 µM
same,IC50,COLO-800,2.1 µM
same,IC50,CP66-MEL,6.25 µM
same,IC50,DBTRG-05MG,2.63 µM
same,IC50,DU-4475,0.0962 µM
same,IC50,EFO-27,3.36 µM
same,IC50,GB-1,1.61 µM
same,IC50,GP5d,5.83 µM
same,IC50,HAL-01,3.8 µM
same,IC50,HCC2157,> 16 µM
same,IC50,HDLM-2,13.8 µM
same,IC50,HT-1080,0.109 µM
same,IC50,KNS-81-FD,> 16 µM
same,IC50,KU-19-19,> 16 µM
same,IC50,KYSE-140,4.92 µM
same,IC50,KYSE-510,0.566 µM
same,IC50,LC-2-ad,2.06 µM
same,IC50,LK-2,1.41 µM
same,IC50,LU-139,4.01 µM
same,IC50,M059J,0.364 µM
same,IC50,MC-IXC,0.115 µM
same,IC50,MeWo,6.79 µM
same,IC50,Mo,> 16 µM
same,IC50,NB12,1.08 µM
same,IC50,NCI-H1304,2.3 µM
same,IC50,NCI-H1563,7.07 µM
same,IC50,NEC8,0.539 µM
same,IC50,NH-12,0.672 µM
same,IC50,OE33,5.12 µM
same,IC50,OS-RC-2,11.2 µM
same,IC50,OVCAR-5,1.54 µM
same,IC50,PA-1,0.132 µM
same,IC50,PSN1,> 16 µM
same,IC50,RVH-421,> 16 µM
same,IC50,SCC-4,7.2 µM
same,IC50,SCH,> 16 µM
same,IC50,SK-HEP1,0.267 µM
same,IC50,SK-LMS-1,0.553 µM
same,IC50,SK-OV-3,10.8 µM
same,IC50,SN12C,1.88 µM
same,IC50,ACN,0.079 µM
same,IC50,AN3-CA,2.2 µM
same,IC50,BV-173,5.05 µM
same,IC50,CAL-33,0.686 µM
same,IC50,CAL-39,4.64 µM
same,IC50,CAL-54,8.92 µM
same,IC50,TE-12,> 16 µM
same,IC50,TE-5,1.18 µM
same,IC50,WM-115,> 16 µM
same,IC50,CAPAN-1,1.25 µM

# Source: ChEMBL document CHEMBL1201861, “Genomics of Drug Sensitity in Cancer screening data, Wellcome Trust Sanger Institute”
